The term MIC denotes the smallest concentration in the dilution series that meets the test's criterion for growth inhibition. For orientation: inhibition means the relative decrease from the control value, in per cent.

The structures appear in SMILES notation. ≈ marks a conversion by molar mass, not a printed value.

In data set [1] the test system is P. aerug. The data set is described as follows: antibiotic activity (MIC). In kind it is cell-based.
Data set [2] has as its system PHA-stimulated human lymphocytes. The data set is described as follows: inhibition of mitogen (PHA)-stimulated growth of human T-cells. To be noted: Homo sapiens, Lymphocyte; 10 μg/ml; read-out: inhibition of PHA-stimulated human lymphocytes (% control). In kind it is cell-based. The text has this:
Results are tabulated below.

Data set [3] deals with Human ovarian carcinoma SKOV3. The data set is described as follows: growth inhibition in vitro (Baker et al.). In kind it is cell-based. The procedure:
As set forth in Table 7 below, all malignant tumors evaluated in tissue culture, endothelial cells and vascular smooth muscle cells were sensitive to inhibition. Thus, compound 1436 has application in the control of growth factor dependent proliferation of many types of tissue.
Using the assay described above, the anticancer effects of compound 1437 against several cancer lines was assessed.

The test system of data set [4] is fasting blood glucose. The data set is described as follows: fasting blood glucose in mice. Format: in vivo, Male CD-1 mice. To be noted: intravenous. The procedure:
To study the effect of steroid administrator or the NHE responsible for secretion of insulin, several of the aminosterols from shark liver were administered to fasting mice. Male CD-1 mice were assigned to one of four treatment groups. Whole blood glucose was tested using glucometer (Lifescan Glucometer II and One Touch test strips). Statistical analysis was via one-way analysis of variance (ANOVA) followed by subsequent Bonferonni's t-test.

Data set [5] concerns NHE1β. To be noted: cited from earlier work.
For data set [6], the system named is L1210 lymphoblastic leukemia. The data set is described as follows: mouse model of L1210 leukemia. To be noted: by day 28. Format: in vivo, C57B mice.
The test system of data set [7] is chick embryo vitelline capillaries. The data set is described as follows: chick embryo vitelline capillary regression assay. Format: in vivo. Also on record: key to vitelline capillary regression: +: Vascular reactivity; 0: No vascular reactivity; +/-: Equivocal reactivity. The note with it: for vitelline capillary regression: 60 minutes. Here is the method:
Using the chick embryo vitelline capillaries assay, compounds were tested for their ability to induce capillary regression. Each compound was applied in 0.1 ml of 15% Ficol 400 and PBS onto the embryo, and vascular regression was assessed after 60 minutes.
The 3-day chick embryo consists of an embryonic disc from which numerous vessels emerge and return, forming a "figure 8"-shaped structure--the embryo in the center with vascular loops extending outward over both poles. […] Following a lag period of around 15 minutes, the constriction of continuity between capillary and secondary vessels, generally on the "venous" side, was observed. Continued pulsatile blood flow progressed, resulting in a "swelling" of the blind tube, followed by a pinching off of the remaining connection and formation of an enclosed vascular sac resembling a "blood island." This process progressed until only the largest vessels remained intact.

In data set [8] the test system is B16 melanoma. The data set is described as follows: B16 melanoma growth in C57B mice. The note with it: subcutaneous administration (FIG. 6). In kind it is in vivo, mouse. The procedure:
The growth of B16 melanoma in C57B mice is dependent upon neovascularization.
Using the growth of B16 melanoma cells in C57B mice, a recognized model for the evaluation of inhibitors of angiogenesis on the growth of cancers, the effects of subcutaneous, intraperitoneal and oral administration of squalamine were evaluated.
Based on the idea that tumor growth involves both the clonal expansion of a malignant cell along with the development of a supporting vascular supply, a combination of compound 1436 with squalamine was tested to determine whether it would achieve a synergistic effect on solid tumor growth. This concept was evaluated in the B16 melanoma model.
Animals were implanted with B16 melanoma followed by treatment with compound 1436 or 1256 administered in a combined schedule or separately. […] Thus, a combination of these two compounds achieves a therapeutic benefit in tumors dependent on neovascularization that may prevent metastatic spread.

Data set [9] can be described thus: mouse IV PK study, HPLC. The note with it: in vivo. The procedure:
To assess clearance, a mouse IV PK study was performed for compound 319 and squalamine. The compound was administered i.v. and blood samples were taken every 10 minutes. The concentration of the administered steroid was determined by HPLC analysis.

Data set [10] concerns stage 59-60 Xenopus tadpoles.
For data set [11], the system named is human melanoma. The data set is described as follows: human melanoma growth time course and cell death (Baker et al.). In kind it is cell-based.

Consider `COC(=O)CCC(C)[C@H]1CCC2C3CC[C@@H]4C[C@H](NCCN)CC[C@]4(C)C3C[C@H](O)[C@@]21C` (stereo partly drawn), for which the MIC in data set [1] was 16 to 32 µg/mL (≈ 35.7 to 71.3 µM).
With `CC(CCC(=O)O)[C@H]1CCC2C3CC[C@@H]4C[C@H](NCCN)CC[C@]4(C)C3C[C@H](O)[C@@]21C` (stereo partly drawn), the MIC in [1] was 128 µg/mL (≈ 294 µM).
On the same count and under the same terms, for `COC(=O)CCC(C)[C@H]1CCC2C3C[C@@H](O)[C@H]4C[C@@H](NCCN)CC[C@]4(C)C3CC[C@@]21C` (stereo partly drawn) the value was 64 µg/mL (≈ 143 µM); for `CC(CCC(=O)O)[C@H]1CCC2C3C[C@@H](O)[C@H]4C[C@@H](NCCN)CC[C@]4(C)C3CC[C@@]21C` (stereo partly drawn), 128 µg/mL (≈ 294 µM); for `COC(=O)CCC(C)[C@H]1CCC2C3CC[C@@H]4C[C@H](NCCCNCCCCNCCCN)CC[C@]4(C)C3C[C@H](O)[C@@]21C` (stereo partly drawn), 8 µg/mL (≈ 13.5 µM).
In turn, `CC(CCC(=O)O)[C@H]1CCC2C3CC[C@@H]4C[C@H](NCCCNCCCCNCCCN)CC[C@]4(C)C3C[C@H](O)[C@@]21C` (stereo partly drawn) yielded an MIC in data set [1] of 4 µg/mL (≈ 6.93 µM).
`COC(=O)CCC(C)[C@H]1CCC2C3CC[C@H]4C[C@@H](NCCCNCCCCNCCCN)CC[C@]4(C)C3CC[C@@]21C` (stereo partly drawn) gave an MIC in data set [1] of 64 µg/mL (≈ 111 µM).
Take `COC(=O)CCC(C)[C@H]1CCC2C3C[C@@H](O)[C@H]4C[C@H](NCCCNCCCCNCCCN)CC[C@]4(C)C3CC[C@@]21C` (stereo partly drawn): inhibition of growth in data set [1] (MIC) required 128 µg/mL (≈ 217 µM).
For the compound `COC(=O)CCC(C)[C@H]1CCC2C3C[C@@H](O)[C@H]4C[C@@H](NCCCNCCCCNCCCN)CC[C@]4(C)C3CC[C@@]21C` (stereo partly drawn), in data set [1], the lowest concentration to inhibit growth (MIC) was 32 µg/mL (≈ 54.2 µM).
In turn, `CC(CCC(=O)O)[C@H]1CCC2C3C[C@@H](O)[C@H]4C[C@@H](NCCCNCCCCNCCCN)CC[C@]4(C)C3CC[C@@]21C` (stereo partly drawn) came in with an MIC in data set [1] of 8 µg/mL (≈ 13.9 µM).
Regarding `CC(C)C(CO)(CC[C@@H](C)[C@H]1CC[C@H]2[C@@H]3[C@H](O)C[C@H]4C[C@@H](NCCCNCCCCN)CC[C@]4(C)[C@H]3CC[C@]12C)OS(=O)(=O)O` (single isomer, unassigned) [Compound 1437], in data set [2], the inhibition at 10 µg/mL turned out to be 10%. For the same compound, the anticancer activity entry in data set [3] is listed as “found to exhibit anticancer activity”. In addition, the hyperglycemia result in data set [4] is recorded as “caused hyperglycemia in mice”.
In the case of `N=C(N)NC(=O)c1nc(Cl)c(N)nc1N` [Amiloride, amiloride], the “inhibition of NHE1β” value in data set [5] is listed as “inhibited by high concentrations”.
With `N.N.[Cl][Pt][Cl]` [Cisplatin, cisplatin, reference compound], in data set [6], the anemia result is recorded as “profound anemia”.
Consider `C[C@H](CCC(=O)O)[C@H]1CC[C@H]2[C@@H]3CC[C@H]4C[C@@H](NCCCNCCCCN)CC[C@]4(C)[C@H]3CC[C@]12C` [Compound 319], for which the vitelline capillary regression result is “+/-” in [7] (0.001 μg applied); “+” in data set [7] (0.01 μg applied); “+” in data set [7] (0.1 μg applied); “+” in data set [7] (1 μg applied); “+” in [7] (10 μg applied). Also, the “activity in vitelline capillary regression assay (in words)” value in data set [7] (in vivo) is on record as “especially active”. In addition, the “control of B16 melanoma” value in data set [8] is recorded as “control of B16 in C57B mice to an extent almost comparable to squalamine”. In addition, the “pharmacokinetic clearance compared with squalamine” value in data set [9] is “more rapid pharmacokinetic clearance than squalamine”. For the same compound, the “tadpole tail capillary occlusion” value in data set [10] (squalamine at 10 μg/ml) is recorded as “common vascular occlusive effect”.
With `CC(C)CCC[C@@H](C)[C@H]1CC[C@H]2[C@@H]3CC[C@H]4C[C@@H](NCCCNCCCCNCCCN)CC[C@]4(C)[C@H]3CC[C@]12C` [Compound 353], the vitelline capillary regression result in data set [7] (1 μg applied) is given as “+/-”. For the same compound, the “effect on chick embryo vitelline capillaries (in words)” value in data set [7] (in vivo) is reported as “no effect on the chick embryo capillary bed”. Further, the apoptotic cell death entry in data set [11] was “apoptotic cell death has been induced”. For the same compound, in data set [11] (FIG. 17A), the “effect on growth of melanoma (time course)” value is recorded as “most pronounced over 48 hours, with less of an effect noted within the first 12 hours of incubation”. In data set [10] (tadpole assay), the “tadpole response similar to compound 1436” value is “produce effects like those produced by compound 1436”.
As for `COC(=O)CCC(C)[C@H]1CCC2C3CC[C@H]4C[C@H](NCCCNCCCCNCCCN)CC[C@]4(C)C3CC[C@@]21C` (stereo partly drawn) [drawing 74], it took 64 µg/mL (≈ 111 µM) to inhibit growth in data set [1] (MIC).
